Assay [1] deals with T1, RNA-binding protein pos-1 (Caenorhabditis elegans, UniProt G5EF15).
T1 sequence (G5EF15 whole entry): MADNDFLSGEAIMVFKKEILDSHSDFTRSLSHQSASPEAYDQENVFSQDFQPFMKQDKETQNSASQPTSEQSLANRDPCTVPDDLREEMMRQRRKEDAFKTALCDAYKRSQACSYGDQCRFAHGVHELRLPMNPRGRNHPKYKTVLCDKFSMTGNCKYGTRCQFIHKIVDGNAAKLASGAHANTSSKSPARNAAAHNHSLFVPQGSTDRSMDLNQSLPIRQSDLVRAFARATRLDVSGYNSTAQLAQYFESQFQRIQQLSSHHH
Briefly: inhibitors of POS-1/mex-3 RNA binding, dose response, biochemical, fluorescence polarization (AID 1964).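 Also: purified POS-1 fused to maltose binding protein made in E. coli; potency of compounds blocking POS-1 binding to fluorescent RNA.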

Another assay has as its target T2, Estrogen receptor (Homo sapiens, UniProt P03372).
T2 sequence (P03372 whole entry): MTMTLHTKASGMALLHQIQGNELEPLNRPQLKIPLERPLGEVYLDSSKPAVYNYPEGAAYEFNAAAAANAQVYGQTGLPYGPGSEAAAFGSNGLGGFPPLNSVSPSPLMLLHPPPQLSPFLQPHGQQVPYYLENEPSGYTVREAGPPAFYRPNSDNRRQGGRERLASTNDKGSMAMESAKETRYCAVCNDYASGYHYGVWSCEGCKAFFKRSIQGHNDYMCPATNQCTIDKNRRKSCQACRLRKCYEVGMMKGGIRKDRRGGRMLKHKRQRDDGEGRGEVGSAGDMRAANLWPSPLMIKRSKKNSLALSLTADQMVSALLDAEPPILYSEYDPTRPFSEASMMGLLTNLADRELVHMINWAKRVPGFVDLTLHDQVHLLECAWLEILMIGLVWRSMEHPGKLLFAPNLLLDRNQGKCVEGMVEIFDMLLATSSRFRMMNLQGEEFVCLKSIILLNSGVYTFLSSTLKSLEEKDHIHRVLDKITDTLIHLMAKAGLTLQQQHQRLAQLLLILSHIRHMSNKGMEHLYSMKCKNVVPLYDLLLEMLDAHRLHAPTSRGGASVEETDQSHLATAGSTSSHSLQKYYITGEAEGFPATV

The target of assay [2] is T3, Polyadenylate-binding protein 1 (Homo sapiens, UniProt P11940). Briefly: PABP1 MLLE–PAM2 binding inhibitor potency, dose response, biochemical, fluorescence polarization, FITC-PAM2 peptide (AID 602259). The class given is functional. The note with it: read-out: IC50_Mean. (Fluorescence polarisation rises when a labelled molecule tumbles more slowly, as on binding a larger partner.)

Assay [3] concerns the target Induced myeloid leukemia cell differentiation protein Mcl-1 (Homo sapiens, UniProt Q07820). The class given is functional.
The target of the next assay is Genome polyprotein (dengue virus type 2, UniProt P29990). Briefly: Dengue-2 NS5 methyltransferase inhibitors, primary screen, biochemical, confirmation dose response (AID 588689). The class given is functional.
Assay [4] deals with T4, Zinc finger protein mex-5 (Caenorhabditis elegans, UniProt Q9XUB2).
T4 sequence (Q9XUB2 whole entry): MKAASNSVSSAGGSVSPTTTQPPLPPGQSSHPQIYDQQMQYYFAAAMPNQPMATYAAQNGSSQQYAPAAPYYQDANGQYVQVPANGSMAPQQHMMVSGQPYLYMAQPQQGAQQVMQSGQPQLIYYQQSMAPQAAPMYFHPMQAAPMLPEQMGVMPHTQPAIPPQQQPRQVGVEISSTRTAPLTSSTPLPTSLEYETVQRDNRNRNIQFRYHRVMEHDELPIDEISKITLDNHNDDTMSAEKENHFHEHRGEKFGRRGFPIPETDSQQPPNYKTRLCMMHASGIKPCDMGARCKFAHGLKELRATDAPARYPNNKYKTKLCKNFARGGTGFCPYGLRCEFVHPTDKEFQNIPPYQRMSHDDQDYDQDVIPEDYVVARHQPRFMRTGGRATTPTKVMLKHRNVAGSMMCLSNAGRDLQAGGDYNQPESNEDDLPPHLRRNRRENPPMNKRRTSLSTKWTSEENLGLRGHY
Briefly: MEX-5/TCR-2 RNA interaction inhibitors, dose response, biochemical, C. elegans, fluorescence polarization (AID 1960).

The target in assay [5] is T3, Polyadenylate-binding protein 1. Briefly: PABP1 MLLE–PAM2 interaction inhibitors, dose response, miRNA deadenylation inhibitor project, biochemical, fluorescence polarization, Cy5-PAM2 peptide, secondary (AID 602260). The following applies: read-out: IC50_Mean. The assay is classed as functional.
The next assay addresses Estrogen receptor beta (Homo sapiens, UniProt Q92731). Briefly: ERβ–SRC-3 coactivator interaction inhibitors, confirmation, orthogonal assay, biochemical, ELISA, streptavidin-HRP readout (AID 1060). A general note: ELISA stands for enzyme-linked immunosorbent assay.
The nature of assay [6]: cytotoxicity in HEK-293T cells, dose response, cytotoxicity control for BCR NF-kB inhibitor project, luminescence, B-cell screen hits (AID 489021).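 Also: HEK-293T cells carrying an NF-kB luciferase reporter; cells exposed to compound for about 14 hours before viability readout.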 The class given is functional, cell-based.
Assay [7] in a line: cytotoxicity toward NIH3T3 fibroblasts, dose response, counter-screen, cell-based, ATP luminescence, mouse fibroblasts (AID 2010).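 Also: cells exposed to compound for about 90 hours before reading.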 The assay is classed as functional. (The purpose of a counterscreen is to sort out artefacts and off-target activity.)
A short description of assay [8]: A Cell Based Secondary Assay To Explore Cytotoxicity of Compounds that Sensitize Mycobacterium Tuberculosis to Beta-Lactam Antibiotics. The assay is classed as functional.
Assay [9] in a line: growth suppression of beta-catenin-knockout colon cells, dose response, cell-based, HCT116, human colon tumor (AID 1045).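 Also: HCT116 colon tumor cells with beta catenin knocked out; cells exposed to compound for 60 hours.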 The class given is functional.
A short description of assay [10]: growth suppression of PTEN-null colon cells, dose response, cell-based, HCT116 PTEN knockout (AID 1047).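 Also: HCT116 colon tumor cells with PTEN knocked out; cells exposed to compound for 60 hours before readout; potency for loss of cell viability measured by luminescence.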 The class given is functional.
Assay [11] is described as follows: inhibitors of intracellular T. cruzi replication, confirmation, NIH3T3 host cells, beta-gal luminescence (AID 2044).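 Also: intracellular parasites grown in NIH/3T3 mouse fibroblasts as host cells; luminescent beta-galactosidase reporter signal from transgenic T. cruzi replicating inside host cells; inhibitors lower the luminescence signal.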 The class given is functional, cell-based.
A further assay addresses Cytochrome P450 3A4 (Homo sapiens, UniProt P08684). The following applies: Potency.
For assay [12], the target named is Luciferin 4-monooxygenase (Photinus pyralis, UniProt P08659). Briefly: Counter Screen for Luciferase-based Assay Positives. [Related pubchem assays: 620, 618, 411 ].
The subject of the next assay is HT-1080. Briefly: cytotoxicity in HT1080 fibrosarcoma cells, cell-based, fluorescence readout (AID 620). The assay is classed as functional. The note with it: Homo sapiens.
For a further assay, the target named is T5, Cytochrome P450 1A2 (Homo sapiens, UniProt P05177).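 Also: PubChem cytochrome P450 panel assay, CYP1A2 panel member.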
T5 sequence (P05177 whole entry): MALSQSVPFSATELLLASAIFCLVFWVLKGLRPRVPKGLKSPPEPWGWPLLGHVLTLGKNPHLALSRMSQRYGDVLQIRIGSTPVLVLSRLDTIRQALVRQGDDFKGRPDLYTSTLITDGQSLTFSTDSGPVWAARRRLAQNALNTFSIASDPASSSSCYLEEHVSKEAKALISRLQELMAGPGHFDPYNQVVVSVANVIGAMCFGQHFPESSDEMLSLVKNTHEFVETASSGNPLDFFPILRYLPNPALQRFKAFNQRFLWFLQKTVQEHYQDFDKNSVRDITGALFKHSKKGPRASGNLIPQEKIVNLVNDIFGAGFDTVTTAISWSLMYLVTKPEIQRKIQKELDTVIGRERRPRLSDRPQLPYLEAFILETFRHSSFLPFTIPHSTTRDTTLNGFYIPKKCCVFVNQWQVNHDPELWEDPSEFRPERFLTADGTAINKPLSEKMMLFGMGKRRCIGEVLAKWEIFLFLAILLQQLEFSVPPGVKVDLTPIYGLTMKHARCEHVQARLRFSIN

The target in assay [13] is DNA dC->dU-editing enzyme APOBEC-3G (Homo sapiens, UniProt Q9HC16). Briefly: Dose Response confirmation of small molecule APOBEC3G DNA Deaminase Inhibitors via a fluorescence-based single-stranded DNA deaminase assay. [Related pubchem assays (depositor defined):AID493012, AID493028]. The assay is classed as functional.
In the next assay the test system is Streptococcus. Briefly: Group A Streptococcus viability loss, dose response, counter-screen for streptokinase expression inhibitor project, luminescence, BacTiterGlo (AID 1915).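 Also: potency for reduction of bacterial viability or growth.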 The class given is functional, organism-based.
The target in another assay is T6, Streptokinase A (Streptococcus pyogenes serotype M1, UniProt P10520).
T6 sequence (P10520 whole entry): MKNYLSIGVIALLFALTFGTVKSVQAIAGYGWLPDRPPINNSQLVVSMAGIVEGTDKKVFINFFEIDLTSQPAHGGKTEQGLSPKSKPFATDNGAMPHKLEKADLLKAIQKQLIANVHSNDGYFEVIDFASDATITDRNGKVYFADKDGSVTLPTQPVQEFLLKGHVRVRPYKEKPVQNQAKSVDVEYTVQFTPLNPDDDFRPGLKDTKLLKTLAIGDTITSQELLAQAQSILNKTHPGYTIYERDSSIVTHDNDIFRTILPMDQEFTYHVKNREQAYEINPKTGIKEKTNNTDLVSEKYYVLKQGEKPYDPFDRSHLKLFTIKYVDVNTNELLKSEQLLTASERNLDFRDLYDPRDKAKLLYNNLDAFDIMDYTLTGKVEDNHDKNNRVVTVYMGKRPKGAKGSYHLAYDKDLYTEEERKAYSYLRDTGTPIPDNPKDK
Briefly: S. pyogenes streptokinase expression inhibitors, potency, dose response, plasminogen activation absorbance, OD405 (AID 1914).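 Also: secreted streptokinase activity via plasminogen activation per viability signal from cell pellet.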 The assay is classed as functional, Streptococcus pyogenes M1 GAS.

Assay [14] concerns Streptococcus sp. 'group A'. Briefly: growth inhibition of control SK(-) GAS strain, dose response, counter-screen for streptokinase expression inhibitor project, luminescence, kanamycin, BacTiterGlo, confirmation (AID 1900). The class given is functional, organism-based.

Calls of active or inactive are those of the source.

Sequence of Luciferin 4-monooxygenase (P08659 whole entry): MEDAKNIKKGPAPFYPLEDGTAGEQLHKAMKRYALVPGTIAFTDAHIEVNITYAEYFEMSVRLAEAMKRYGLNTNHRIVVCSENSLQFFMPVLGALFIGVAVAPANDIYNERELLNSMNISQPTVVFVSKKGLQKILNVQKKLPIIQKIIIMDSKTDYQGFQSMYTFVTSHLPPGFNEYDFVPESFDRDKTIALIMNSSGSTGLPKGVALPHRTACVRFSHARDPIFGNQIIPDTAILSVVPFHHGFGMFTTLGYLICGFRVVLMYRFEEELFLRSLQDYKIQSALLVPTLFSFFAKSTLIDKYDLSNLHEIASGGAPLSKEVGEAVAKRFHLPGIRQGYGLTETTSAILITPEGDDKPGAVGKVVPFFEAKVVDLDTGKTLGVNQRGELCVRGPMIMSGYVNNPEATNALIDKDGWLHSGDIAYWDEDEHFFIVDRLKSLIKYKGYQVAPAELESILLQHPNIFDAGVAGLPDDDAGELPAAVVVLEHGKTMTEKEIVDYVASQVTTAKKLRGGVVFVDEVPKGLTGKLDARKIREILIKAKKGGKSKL
Sequence of Cytochrome P450 3A4 (P08684 whole entry): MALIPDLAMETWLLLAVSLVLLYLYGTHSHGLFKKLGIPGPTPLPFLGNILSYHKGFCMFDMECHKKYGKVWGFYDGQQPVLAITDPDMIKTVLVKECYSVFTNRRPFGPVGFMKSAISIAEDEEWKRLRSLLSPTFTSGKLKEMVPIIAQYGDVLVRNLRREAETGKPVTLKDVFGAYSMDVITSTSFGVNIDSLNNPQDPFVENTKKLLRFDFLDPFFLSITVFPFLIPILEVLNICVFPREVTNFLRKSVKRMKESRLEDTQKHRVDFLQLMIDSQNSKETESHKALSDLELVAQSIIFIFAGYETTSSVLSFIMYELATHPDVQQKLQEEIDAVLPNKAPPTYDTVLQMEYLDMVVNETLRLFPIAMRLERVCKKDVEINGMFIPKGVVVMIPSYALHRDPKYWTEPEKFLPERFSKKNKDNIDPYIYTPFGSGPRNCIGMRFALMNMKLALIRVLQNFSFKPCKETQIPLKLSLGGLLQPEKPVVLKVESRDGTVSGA
T3 sequence (P11940 whole entry): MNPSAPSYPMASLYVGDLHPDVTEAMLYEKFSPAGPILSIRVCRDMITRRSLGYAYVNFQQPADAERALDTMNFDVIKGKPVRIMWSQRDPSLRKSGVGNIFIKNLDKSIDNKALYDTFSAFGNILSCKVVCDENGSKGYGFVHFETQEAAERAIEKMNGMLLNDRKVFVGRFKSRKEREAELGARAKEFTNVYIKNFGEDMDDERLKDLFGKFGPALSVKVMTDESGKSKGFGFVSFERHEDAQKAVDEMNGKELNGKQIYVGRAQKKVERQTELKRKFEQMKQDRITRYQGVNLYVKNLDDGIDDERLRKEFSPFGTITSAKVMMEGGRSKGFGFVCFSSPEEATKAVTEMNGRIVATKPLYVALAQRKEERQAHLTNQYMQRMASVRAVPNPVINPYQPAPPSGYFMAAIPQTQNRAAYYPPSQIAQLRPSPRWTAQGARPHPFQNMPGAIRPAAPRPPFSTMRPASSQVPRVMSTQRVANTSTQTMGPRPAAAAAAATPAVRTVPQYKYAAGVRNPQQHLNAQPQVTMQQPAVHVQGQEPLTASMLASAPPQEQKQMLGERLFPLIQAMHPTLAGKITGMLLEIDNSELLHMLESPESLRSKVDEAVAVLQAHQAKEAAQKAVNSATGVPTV
Sequence of Induced myeloid leukemia cell differentiation protein Mcl-1 (Q07820 whole entry): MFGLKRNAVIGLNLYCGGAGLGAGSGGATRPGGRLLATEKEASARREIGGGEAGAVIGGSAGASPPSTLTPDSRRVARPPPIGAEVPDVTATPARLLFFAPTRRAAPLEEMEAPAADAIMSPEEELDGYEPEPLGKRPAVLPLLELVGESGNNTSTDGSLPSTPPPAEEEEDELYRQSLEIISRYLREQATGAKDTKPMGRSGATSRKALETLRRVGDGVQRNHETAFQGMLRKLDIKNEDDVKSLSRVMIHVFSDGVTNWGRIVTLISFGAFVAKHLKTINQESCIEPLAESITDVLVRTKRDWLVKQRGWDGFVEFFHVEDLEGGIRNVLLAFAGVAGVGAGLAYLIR
Sequence of DNA dC->dU-editing enzyme APOBEC-3G (Q9HC16 whole entry): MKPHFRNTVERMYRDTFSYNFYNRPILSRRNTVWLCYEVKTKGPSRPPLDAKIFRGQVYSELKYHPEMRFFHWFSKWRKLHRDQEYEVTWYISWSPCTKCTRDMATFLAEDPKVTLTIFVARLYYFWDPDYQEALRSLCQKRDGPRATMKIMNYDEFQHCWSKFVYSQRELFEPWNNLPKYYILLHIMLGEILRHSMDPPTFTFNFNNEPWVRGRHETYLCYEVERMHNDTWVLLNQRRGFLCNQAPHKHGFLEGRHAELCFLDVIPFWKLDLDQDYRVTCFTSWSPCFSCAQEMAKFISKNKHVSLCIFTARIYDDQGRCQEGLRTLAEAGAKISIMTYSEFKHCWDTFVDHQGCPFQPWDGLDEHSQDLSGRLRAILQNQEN
Sequence of Estrogen receptor beta (Q92731 whole entry): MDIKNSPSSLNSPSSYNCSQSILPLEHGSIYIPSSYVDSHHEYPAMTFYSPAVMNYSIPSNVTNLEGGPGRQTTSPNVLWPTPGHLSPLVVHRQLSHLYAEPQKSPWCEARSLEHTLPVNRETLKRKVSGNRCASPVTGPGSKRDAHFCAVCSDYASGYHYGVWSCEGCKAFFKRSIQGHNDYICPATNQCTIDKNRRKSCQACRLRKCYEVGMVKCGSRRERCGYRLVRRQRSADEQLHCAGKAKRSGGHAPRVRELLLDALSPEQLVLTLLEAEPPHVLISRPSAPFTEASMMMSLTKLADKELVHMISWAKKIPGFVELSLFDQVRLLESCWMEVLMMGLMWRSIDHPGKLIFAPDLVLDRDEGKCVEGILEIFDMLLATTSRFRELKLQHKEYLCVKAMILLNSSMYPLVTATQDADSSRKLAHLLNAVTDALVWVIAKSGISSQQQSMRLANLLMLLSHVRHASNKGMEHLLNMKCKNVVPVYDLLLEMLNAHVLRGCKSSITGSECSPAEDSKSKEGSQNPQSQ
Sequence of Genome polyprotein (P29990 2492-3391 limits assumed): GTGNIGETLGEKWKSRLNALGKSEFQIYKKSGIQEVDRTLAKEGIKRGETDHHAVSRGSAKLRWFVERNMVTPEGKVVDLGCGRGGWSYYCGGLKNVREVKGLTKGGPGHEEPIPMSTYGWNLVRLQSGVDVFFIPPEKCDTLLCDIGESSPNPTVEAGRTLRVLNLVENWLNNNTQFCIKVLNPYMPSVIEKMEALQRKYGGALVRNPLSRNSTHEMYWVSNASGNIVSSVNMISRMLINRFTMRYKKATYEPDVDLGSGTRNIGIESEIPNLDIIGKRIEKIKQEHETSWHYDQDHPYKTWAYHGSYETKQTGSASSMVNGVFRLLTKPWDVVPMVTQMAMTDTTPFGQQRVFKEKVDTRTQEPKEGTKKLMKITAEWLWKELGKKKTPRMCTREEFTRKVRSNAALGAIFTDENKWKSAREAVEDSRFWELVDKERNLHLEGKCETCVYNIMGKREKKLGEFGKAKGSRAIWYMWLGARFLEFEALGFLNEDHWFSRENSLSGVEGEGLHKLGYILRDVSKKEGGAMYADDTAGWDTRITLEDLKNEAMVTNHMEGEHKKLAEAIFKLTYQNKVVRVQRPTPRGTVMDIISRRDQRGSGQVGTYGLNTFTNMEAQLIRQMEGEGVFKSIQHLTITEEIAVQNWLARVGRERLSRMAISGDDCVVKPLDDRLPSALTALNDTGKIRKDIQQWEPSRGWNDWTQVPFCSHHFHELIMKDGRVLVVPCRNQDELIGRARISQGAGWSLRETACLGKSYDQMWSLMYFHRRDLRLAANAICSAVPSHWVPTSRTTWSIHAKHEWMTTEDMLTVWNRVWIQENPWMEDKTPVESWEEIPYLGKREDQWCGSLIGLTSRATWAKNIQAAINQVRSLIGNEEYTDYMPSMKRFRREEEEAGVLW

In general, EC50 refers to the concentration needed to bring the measured effect to its halfway point. `O=C(NCCO)c1ccc2nc(-c3ccco3)c(-c3ccco3)nc2c1`: the EC50 in assay [1] was > 300 µM (not active); in assay [4] it was 17.5 µM (active). For the same compound, the IC50 is > 50 µM (not active) against Estrogen receptor; > 66 µM (inactive) in assay [2]; < 0.4 µM (active) in [3]; 67.7 µM (active) at Genome polyprotein; > 66 µM (inactive) in [5]; 11.4 µM (not active) at Estrogen receptor beta.
`CC(C)CCNC(=O)CCCOc1cc(=O)n(C)c2ccccc12`: the IC50 in assay [6] is > 80 µM (inactive).
Usually CC50 stands for the concentration at which the toxic effect on the cells reaches its halfway point. For `Cc1nn(Cc2ccc(Cl)cc2)c(C)c1NC(=O)CSc1nc2c(c(C(F)(F)F)n1)CCc1ccccc1-2`, the EC50 in assay [7] was > 60 µM (not active); in [9] it was 14 µM (active); in assay [10] it was 12.8 µM (active); in [11], 1.72 µM (active). The CC50 in assay [8] was 29 µM (active).
Broadly, the AC50 is the midpoint of the concentration-response curve, whichever way the signal moves. Turning to `CC(=O)OCC1=C(C(=O)O)N2C(=O)C(NC(=O)Cc3cccs3)C2SC1` (stereo not given), the AC50 at Cytochrome P450 3A4 was 31.6 µM (inconclusive).
As to `O=C(O)COc1ccc(-c2nccc(-c3ccccn3)n2)cc1`, the IC50 in assay [6] was > 80 µM (inactive).
Regarding `COC(=O)C1OC(=O)C2O[C@@]23[C@]2(C)C(OC(C)=O)CC4C(C)(C)C(=O)CC[C@]4(C)C2CC[C@@]13C` (stereo not given in full), the half-maximal activity concentration (AC50) at Cytochrome P450 3A4 was 39.8 µM (inconclusive).
As for `O=C(NCc1ccco1)c1cc2ccccc2c(=O)o1`, at Estrogen receptor, the IC50 was 30.2 µM (not active).
For `CC(C)(C)c1ccc(OCC(O)CSc2nnc[nH]2)cc1` (stereo not given), the EC50 in [12] is 1.29 µM (active).
For `CCCc1nc2c(C)cc(-c3nc4ccccc4n3C)cc2n1Cc1ccc(-c2ccccc2C(=O)O)cc1`, the IC50 in assay [6] is > 80 µM (inactive).
`Brc1ccccc1-c1nc(-c2ccccc2)no1`: the values for the 50% effective concentration (EC50) (in assay [12]; with HT-1080) were 5.42 µM (active) and > 50 µM (not active), respectively.
With `CC(C)CC(C)Nc1ccc(Nc2ccccc2)cc1` (stereo not given), the AC50 on Cytochrome P450 3A4 is 25.1 µM (inconclusive).
In the case of `O=C(CN(Cc1ccco1)C(=O)c1cccc(Cl)c1)Nc1c(Cl)cc(Cl)cc1Cl`, the half-maximal activity concentration (AC50) at Cytochrome P450 1A2 was 12.6 µM (inconclusive). Further, in assay [8], the CC50 was 24 µM (active).
`CCCC(C)c1nnc(NC(=O)CCS(=O)(=O)c2ccccc2)s1` (stereo not given): the IC50 in assay [13] was 32.2 µM (active).
Regarding `CC(C)(C)C(=O)N1CCc2cc(-c3csc(N)n3)ccc21`, the values for the EC50 (in assay [12]; with HT-1080) were 9.92 µM (active) and > 50 µM (not active), respectively.
The like results for `Cc1cccc(C(=O)N2CCN(C(=O)c3cccc(C)c3)C(C)C2)c1` (stereo not given) were, in that order, 10.6 µM (active) and > 50 µM (not active).
`COc1cccc(C2C(C)CCC3C(=O)N(C)C(C(C)C)C(=O)N32)c1` (stereo not given): at Cytochrome P450 3A4, the AC50 was 2 µM (inconclusive).
As to `CC1(C)CN=C(Nc2nc3ccccc3s2)S1`, the half-maximal cytotoxic concentration (CC50) in assay [8] is > 40 µM (active). Besides, the EC50 in the assay with Streptococcus was > 150 µM (not active); on Streptokinase A it was > 150 µM (not active); in assay [14] it was 15.3 µM (active).

(Values after ChEMBL document CHEMBL1201862, “PubChem BioAssay data set” (2004).)
